pKi: −log10 of the molar value.
How the values were obtained:
[1] = K. Arakawa et al.; cited from earlier work
[2] = target: δ opioid receptors (Mus musculus, UniProt P32300); design: mouse vas deferens (MVD) preparations; from tissue; host or cells: mouse vas deferens, electrically stimulated; details: MVD, DADLE; data from Korlipara et al.; 15 min; read-out: Ke; cited from earlier work
[3] = target: δ1 (Mus musculus, UniProt P32300); details: mouse, in vivo
[4] = target: μ (Cavia porcellus, UniProt A0ACM8Q262); details: data from Portoghese et al.; cited from earlier work
Sequence of μ (A0ACM8Q262 1-400): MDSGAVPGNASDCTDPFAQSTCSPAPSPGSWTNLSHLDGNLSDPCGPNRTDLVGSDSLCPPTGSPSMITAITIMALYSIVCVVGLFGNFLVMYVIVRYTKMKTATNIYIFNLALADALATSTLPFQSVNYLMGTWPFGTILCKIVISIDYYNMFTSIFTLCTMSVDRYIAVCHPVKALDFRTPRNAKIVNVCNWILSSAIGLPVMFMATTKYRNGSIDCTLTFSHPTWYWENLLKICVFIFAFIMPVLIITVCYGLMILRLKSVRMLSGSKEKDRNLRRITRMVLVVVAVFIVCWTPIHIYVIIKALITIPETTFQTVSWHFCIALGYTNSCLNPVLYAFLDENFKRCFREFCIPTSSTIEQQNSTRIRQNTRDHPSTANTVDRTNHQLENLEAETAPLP

[5] = system: rats; details: compared to peptidyl delta-opioid receptor antagonists; Ser. No. 07/750,109; cited from earlier work

Sequence of δ1 (P32300 whole entry): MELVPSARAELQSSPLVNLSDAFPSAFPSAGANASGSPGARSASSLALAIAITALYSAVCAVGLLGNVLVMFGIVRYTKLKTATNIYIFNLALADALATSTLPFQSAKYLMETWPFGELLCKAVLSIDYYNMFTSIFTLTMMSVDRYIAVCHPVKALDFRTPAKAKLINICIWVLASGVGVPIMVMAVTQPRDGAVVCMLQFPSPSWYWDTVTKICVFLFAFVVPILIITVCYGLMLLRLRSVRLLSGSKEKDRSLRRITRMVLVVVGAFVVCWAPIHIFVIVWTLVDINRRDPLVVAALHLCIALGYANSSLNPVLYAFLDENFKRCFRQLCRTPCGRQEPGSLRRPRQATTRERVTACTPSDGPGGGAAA
Sequence of δ opioid receptors (P32300 whole entry): as above

## Oc1ccc2c3c1O[C@H]1c4[nH]c5ccccc5c4C[C@@]4(O)[C@@H](C2)N(CC2CC2)CC[C@]314 [Compound 1, naltrindole]
[1]
  immunosuppressive activity (in words): potent immunosuppressive activity
[2]
  Kb: 0.2 nM
[3]
  Dose required to double the ED50 of DPDPE, i.c.v.: 0.3 nmol/kg
[3]; iv
  Dose required to double the ED50 of DPDPE, i.v.: 2.19 µmol/kg
  penetration into the CNS (in words): penetrates the CNS more readily than the conjugates
[4]
  pKi: 8.42
[5]
  suppression of ethanol drinking (in words): unexpectedly prolonged suppression of ethanol drinking

From patent US5578725A, “Delta opioid receptor antagonists” (priority 1995, dated 1996)
